# Assay results reported in ChEMBL document CHEMBL5226307, “Advances in Cyclic Nucleotide Phosphodiesterase-Targeted PET Imaging and Drug Discovery” (J Med Chem, 2021).
# Tests used:
# [1] = target: T1, cAMP and cAMP-inhibited cGMP 3',5'-cyclic phosphodiesterase 10A (Homo sapiens, UniProt Q9Y233); test: Inhibition of PDE10A (unknown origin)
# [2] = target: T1, cAMP and cAMP-inhibited cGMP 3',5'-cyclic phosphodiesterase 10A; test: Binding affinity to full length human PDE10A assessed as dissociation constant using [3H]-cAMP as substrate
# [3] = target: T1, cAMP and cAMP-inhibited cGMP 3',5'-cyclic phosphodiesterase 10A; test: Binding affinity to full length human PDE10A assessed as dissociation constant
# [4] = target: T1, cAMP and cAMP-inhibited cGMP 3',5'-cyclic phosphodiesterase 10A; test: Inhibition of human PDE10
# [5] = target: Dual 3',5'-cyclic-AMP and -GMP phosphodiesterase 11A (Homo sapiens, UniProt Q9HCR9); test: Inhibition of human PDE11
# [6] = Metabolic stability in mouse plasma assessed as parent compound remaining incubated for 30 mins by HPLC analysis; assay type: ADME, cell-free; settings: read-out: Stability
# [7] = Drug uptake in mouse striatum; assay type: ADME, tissue-based; settings: in vivo
# [8] = Drug uptake in mouse striatum assessed as standardized uptake value; assay type: ADME, tissue-based; settings: in vivo
# [9] = Drug uptake in mouse brown adipose tissue; assay type: ADME, tissue-based; settings: in vivo
# [10] = Metabolic stability in mouse brain assessed as parent compound remaining incubated for 30 mins by HPLC analysis; assay type: ADME, tissue-based; settings: read-out: Stability
# [11] = Drug uptake in NMRI mouse lung assessed as maximum standardized uptake value incubated for 30 mins; assay type: ADME, tissue-based; settings: in vivo, 0.5 h
# [12] = Drug uptake in NMRI mouse lung incubated for 30 mins relative to control; assay type: ADME, tissue-based; settings: in vivo, 0.5 h
# [13] = target: 3',5'-cyclic-AMP phosphodiesterase 4A (Homo sapiens, UniProt P27815); test: Inhibition of human PDE4A
# [14] = target: High affinity 3',5'-cyclic-AMP phosphodiesterase 7A (Homo sapiens, UniProt Q13946); test: Inhibition of human PDE7A1
# [15] = target: Dual specificity calcium/calmodulin-dependent 3',5'-cyclic nucleotide phosphodiesterase 1B (Homo sapiens, UniProt Q01064); test: Inhibition of human PDE1B
# [16] = target: T2, cGMP-dependent 3',5'-cyclic phosphodiesterase (Homo sapiens, UniProt O00408); test: Inhibition of human PDE2
# [17] = target: Dual specificity calcium/calmodulin-dependent 3',5'-cyclic nucleotide phosphodiesterase 1C (Homo sapiens, UniProt Q14123); test: Inhibition of human PDE1C
# [18] = target: T3, cGMP-specific 3',5'-cyclic phosphodiesterase (Homo sapiens, UniProt O76074); test: Inhibition of human PDE5
# [19] = target: T2, cGMP-dependent 3',5'-cyclic phosphodiesterase; test: Inhibition of human PDE2A
# [20] = target: T1, cAMP and cAMP-inhibited cGMP 3',5'-cyclic phosphodiesterase 10A; test: Inhibition of human PDE10A
# [21] = Drug uptake in human putamen nucleus assessed as standardized uptake value; assay type: ADME, tissue-based
# [22] = Drug uptake in human globus pallidus assessed as standardized uptake value; assay type: ADME, tissue-based
# [23] = target: T1, cAMP and cAMP-inhibited cGMP 3',5'-cyclic phosphodiesterase 10A; test: Binding affinity to PDE10A (unknown origin) assessed as dissociation constant
# [24] = Drug uptake in human caudate nucleus assessed as standardized uptake value; assay type: ADME, tissue-based
# [25] = Stability in human plasma assessed as parent compound remaining after 120 mins; assay type: ADME, cell-free; settings: read-out: Stability
# [26] = target: T3, cGMP-specific 3',5'-cyclic phosphodiesterase; test: Inhibition of PDE5A (unknown origin)
# [27] = target: T3, cGMP-specific 3',5'-cyclic phosphodiesterase; test: Binding affinity to PDE5 (unknown origin); settings: tested as the 18F-labelled form
# [28] = Lipophilicity, logD of the compound in Octanol/potassium phosphate buffer at pH 7.4 after 1 hr by HPLC analysis; assay type: physicochemical
# [29] = target: T3, cGMP-specific 3',5'-cyclic phosphodiesterase; test: Inhibition of PDE5 (unknown origin)
# [30] = target: T4, cAMP and cAMP-inhibited cGMP 3',5'-cyclic phosphodiesterase 10A (Rattus norvegicus, UniProt Q9QYJ6)
# T4 sequence (Q9QYJ6 whole entry): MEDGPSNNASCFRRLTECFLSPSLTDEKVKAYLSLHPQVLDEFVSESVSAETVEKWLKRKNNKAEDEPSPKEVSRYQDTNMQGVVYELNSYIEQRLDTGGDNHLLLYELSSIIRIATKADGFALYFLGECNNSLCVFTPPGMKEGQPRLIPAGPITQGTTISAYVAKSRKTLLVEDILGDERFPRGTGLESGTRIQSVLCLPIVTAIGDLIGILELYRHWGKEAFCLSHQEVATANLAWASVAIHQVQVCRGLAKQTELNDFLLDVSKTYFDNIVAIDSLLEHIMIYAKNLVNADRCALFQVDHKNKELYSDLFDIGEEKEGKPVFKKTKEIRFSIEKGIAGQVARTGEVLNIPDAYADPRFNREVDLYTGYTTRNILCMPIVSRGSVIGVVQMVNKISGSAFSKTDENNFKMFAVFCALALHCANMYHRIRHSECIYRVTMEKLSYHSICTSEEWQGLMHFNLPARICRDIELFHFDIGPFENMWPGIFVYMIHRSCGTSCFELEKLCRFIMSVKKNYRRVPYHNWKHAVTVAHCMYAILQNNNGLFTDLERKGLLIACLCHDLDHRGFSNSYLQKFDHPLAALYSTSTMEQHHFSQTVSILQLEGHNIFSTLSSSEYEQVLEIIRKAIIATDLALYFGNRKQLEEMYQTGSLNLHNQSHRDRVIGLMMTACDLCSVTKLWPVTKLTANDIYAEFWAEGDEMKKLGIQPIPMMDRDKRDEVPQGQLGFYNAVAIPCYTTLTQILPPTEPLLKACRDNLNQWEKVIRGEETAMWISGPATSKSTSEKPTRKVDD
# [31] = Metabolic stability in cynomolgus monkey assessed as parent compound remaining incubated for 30 mins in presence of NADPH; assay type: ADME, Macaca fascicularis; settings: read-out: Stability
# [32] = Drug uptake in pig myocardium assessed as standardized uptake value; assay type: ADME, tissue-based, Sus scrofa; settings: in vivo
# [33] = Toxicity in mouse assessed as body weight loss at 10 mg/kg/day, po; assay type: organism-based; settings: in vivo
# [34] = Stability in mouse brain measured at 15 mins; assay type: ADME, tissue-based; settings: read-out: Stability
# Phosphodiesterase 7 = Phosphodiesterase 7 (Homo sapiens, UniProt Q13946+Q9NP56); test: Inhibition of PDE7 (unknown origin); assay type: protein assay
# [35] = Metabolic stability in baboon brain assessed as parent compound remaining incubated for 90 mins; assay type: ADME, tissue-based, Papio; settings: read-out: Stability
# [36] = Metabolic stability in non human primates plasma assessed as parent compound remaining incubated for 70 mins by HPLC analysis; assay type: ADME, cell-free; settings: read-out: Stability
# Phosphodiesterase 1 = Phosphodiesterase 1 (Homo sapiens, UniProt P54750+Q01064+Q14123); test: Inhibition of PDE1 (unknown origin); assay type: protein assay
# Phosphodiesterase 4 = Phosphodiesterase 4 (Homo sapiens, UniProt P27815+Q08499+Q07343+Q08493); test: Binding affinity to human PDE4 assessed as dissociation constant; assay type: protein assay
# T1 sequence (Q9Y233 whole entry): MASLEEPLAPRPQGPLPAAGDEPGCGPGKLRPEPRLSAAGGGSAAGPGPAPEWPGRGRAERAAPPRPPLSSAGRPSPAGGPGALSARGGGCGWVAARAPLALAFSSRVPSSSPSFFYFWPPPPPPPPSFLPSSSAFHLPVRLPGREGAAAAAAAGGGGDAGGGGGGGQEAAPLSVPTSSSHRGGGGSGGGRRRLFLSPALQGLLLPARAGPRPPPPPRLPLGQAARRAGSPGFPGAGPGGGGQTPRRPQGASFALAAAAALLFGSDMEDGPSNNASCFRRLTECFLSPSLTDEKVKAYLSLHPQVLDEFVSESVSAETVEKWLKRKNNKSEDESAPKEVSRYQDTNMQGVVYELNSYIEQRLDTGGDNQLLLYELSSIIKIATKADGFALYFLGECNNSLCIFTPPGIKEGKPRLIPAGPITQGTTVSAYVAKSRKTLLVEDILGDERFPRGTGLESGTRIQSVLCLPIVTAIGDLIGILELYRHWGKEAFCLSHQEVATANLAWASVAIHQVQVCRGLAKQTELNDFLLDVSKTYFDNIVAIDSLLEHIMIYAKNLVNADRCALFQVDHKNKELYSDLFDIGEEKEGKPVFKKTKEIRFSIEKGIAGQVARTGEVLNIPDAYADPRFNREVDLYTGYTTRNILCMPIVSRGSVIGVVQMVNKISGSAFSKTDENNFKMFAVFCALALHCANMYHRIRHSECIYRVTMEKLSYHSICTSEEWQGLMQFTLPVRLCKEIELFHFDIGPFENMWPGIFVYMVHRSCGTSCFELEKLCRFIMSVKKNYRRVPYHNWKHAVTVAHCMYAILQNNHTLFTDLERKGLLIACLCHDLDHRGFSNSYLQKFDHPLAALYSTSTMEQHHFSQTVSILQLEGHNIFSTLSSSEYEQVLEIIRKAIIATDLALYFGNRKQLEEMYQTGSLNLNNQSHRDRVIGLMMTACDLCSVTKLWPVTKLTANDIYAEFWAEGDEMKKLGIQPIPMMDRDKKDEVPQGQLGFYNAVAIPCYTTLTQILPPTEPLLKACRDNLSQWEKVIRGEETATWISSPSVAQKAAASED
# T2 sequence (O00408 whole entry): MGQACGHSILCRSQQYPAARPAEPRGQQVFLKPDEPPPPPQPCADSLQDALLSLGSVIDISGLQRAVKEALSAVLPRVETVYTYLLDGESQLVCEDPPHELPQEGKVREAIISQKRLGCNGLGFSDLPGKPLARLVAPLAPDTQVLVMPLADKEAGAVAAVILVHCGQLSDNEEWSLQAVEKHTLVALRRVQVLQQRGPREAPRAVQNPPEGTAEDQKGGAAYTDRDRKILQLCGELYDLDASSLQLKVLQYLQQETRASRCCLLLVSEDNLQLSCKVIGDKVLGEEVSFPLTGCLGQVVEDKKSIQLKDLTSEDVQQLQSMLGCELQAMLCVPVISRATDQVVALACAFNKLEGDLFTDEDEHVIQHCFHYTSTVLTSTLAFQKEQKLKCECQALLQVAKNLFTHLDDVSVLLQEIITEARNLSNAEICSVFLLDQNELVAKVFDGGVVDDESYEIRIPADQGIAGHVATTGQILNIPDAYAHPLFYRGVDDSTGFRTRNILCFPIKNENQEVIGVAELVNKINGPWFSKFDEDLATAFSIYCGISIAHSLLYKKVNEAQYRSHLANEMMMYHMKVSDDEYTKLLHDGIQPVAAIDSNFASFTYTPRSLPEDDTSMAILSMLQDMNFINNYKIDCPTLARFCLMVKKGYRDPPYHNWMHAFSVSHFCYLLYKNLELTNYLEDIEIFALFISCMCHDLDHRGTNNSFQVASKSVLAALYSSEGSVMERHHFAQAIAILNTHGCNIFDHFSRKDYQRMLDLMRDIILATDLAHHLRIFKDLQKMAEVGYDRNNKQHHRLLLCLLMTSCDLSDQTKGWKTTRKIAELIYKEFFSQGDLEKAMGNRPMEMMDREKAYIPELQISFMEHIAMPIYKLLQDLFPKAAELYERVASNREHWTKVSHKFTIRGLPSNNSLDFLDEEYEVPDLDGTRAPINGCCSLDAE
# Sequence of 3',5'-cyclic-AMP phosphodiesterase 4A (P27815 whole entry): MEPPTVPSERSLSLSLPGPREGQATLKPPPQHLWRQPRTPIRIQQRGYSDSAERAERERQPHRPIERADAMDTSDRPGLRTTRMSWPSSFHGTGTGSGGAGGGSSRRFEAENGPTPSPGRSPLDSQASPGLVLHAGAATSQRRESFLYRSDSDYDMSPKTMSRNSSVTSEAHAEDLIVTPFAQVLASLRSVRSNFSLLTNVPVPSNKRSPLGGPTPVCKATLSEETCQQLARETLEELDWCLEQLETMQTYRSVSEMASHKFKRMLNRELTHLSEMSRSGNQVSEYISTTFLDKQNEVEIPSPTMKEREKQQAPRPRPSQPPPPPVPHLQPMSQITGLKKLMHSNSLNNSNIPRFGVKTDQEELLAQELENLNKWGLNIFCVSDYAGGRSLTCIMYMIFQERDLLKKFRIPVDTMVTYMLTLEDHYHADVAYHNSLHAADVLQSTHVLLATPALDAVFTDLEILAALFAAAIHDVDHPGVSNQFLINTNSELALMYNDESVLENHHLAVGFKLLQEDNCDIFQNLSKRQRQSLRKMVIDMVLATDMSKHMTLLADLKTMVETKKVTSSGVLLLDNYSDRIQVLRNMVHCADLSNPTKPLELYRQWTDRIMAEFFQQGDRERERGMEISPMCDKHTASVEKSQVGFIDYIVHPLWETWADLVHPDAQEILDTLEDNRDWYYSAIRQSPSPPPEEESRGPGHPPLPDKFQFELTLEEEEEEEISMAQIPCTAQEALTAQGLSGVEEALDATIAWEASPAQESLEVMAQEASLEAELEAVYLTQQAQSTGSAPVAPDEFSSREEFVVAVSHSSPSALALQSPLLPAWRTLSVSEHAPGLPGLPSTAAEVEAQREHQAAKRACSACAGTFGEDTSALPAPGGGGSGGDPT
# Sequence of Dual 3',5'-cyclic-AMP and -GMP phosphodiesterase 11A (Q9HCR9 whole entry): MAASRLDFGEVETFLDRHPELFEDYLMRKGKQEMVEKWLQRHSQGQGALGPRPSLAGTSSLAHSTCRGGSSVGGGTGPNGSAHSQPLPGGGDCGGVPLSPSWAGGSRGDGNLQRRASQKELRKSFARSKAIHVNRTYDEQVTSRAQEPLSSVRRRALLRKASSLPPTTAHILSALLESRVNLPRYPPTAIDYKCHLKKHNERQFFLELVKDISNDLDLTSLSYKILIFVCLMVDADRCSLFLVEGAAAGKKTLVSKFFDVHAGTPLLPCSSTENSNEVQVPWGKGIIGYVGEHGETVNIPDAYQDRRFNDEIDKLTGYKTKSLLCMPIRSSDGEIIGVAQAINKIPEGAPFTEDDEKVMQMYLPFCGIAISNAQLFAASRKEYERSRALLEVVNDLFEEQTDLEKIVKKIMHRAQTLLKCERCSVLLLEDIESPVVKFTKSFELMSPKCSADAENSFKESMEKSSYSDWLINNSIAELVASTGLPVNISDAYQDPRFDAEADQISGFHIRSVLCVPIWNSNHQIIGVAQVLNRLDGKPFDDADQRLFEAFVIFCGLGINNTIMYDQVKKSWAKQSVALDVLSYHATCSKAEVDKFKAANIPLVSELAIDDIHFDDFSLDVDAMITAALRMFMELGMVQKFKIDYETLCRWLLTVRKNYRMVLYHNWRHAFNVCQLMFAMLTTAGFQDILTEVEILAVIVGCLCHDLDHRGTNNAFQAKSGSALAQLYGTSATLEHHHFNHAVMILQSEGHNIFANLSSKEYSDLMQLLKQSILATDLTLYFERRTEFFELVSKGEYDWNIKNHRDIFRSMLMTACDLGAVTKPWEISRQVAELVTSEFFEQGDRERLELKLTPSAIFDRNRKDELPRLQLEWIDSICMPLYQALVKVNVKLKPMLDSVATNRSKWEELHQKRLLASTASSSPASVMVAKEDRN
# Sequence of Dual specificity calcium/calmodulin-dependent 3',5'-cyclic nucleotide phosphodiesterase 1C (Q14123 whole entry): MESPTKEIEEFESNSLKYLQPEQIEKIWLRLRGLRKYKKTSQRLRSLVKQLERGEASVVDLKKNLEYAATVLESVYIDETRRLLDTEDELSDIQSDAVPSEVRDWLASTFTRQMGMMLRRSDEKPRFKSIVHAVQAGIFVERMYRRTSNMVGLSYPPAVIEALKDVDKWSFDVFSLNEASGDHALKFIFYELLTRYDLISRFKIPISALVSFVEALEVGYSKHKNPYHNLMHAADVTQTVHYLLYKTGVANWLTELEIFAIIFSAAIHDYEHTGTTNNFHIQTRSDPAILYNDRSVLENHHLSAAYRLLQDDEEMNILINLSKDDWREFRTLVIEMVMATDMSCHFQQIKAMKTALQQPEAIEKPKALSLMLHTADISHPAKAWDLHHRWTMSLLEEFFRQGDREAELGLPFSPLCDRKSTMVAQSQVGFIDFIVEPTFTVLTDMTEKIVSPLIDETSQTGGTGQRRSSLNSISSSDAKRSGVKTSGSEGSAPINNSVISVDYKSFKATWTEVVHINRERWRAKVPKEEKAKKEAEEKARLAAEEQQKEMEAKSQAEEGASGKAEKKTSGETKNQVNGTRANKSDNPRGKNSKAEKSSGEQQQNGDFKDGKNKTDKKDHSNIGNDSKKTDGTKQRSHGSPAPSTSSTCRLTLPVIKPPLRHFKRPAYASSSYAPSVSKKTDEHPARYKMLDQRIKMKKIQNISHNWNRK
# Sequence of Dual specificity calcium/calmodulin-dependent 3',5'-cyclic nucleotide phosphodiesterase 1B (Q01064 whole entry): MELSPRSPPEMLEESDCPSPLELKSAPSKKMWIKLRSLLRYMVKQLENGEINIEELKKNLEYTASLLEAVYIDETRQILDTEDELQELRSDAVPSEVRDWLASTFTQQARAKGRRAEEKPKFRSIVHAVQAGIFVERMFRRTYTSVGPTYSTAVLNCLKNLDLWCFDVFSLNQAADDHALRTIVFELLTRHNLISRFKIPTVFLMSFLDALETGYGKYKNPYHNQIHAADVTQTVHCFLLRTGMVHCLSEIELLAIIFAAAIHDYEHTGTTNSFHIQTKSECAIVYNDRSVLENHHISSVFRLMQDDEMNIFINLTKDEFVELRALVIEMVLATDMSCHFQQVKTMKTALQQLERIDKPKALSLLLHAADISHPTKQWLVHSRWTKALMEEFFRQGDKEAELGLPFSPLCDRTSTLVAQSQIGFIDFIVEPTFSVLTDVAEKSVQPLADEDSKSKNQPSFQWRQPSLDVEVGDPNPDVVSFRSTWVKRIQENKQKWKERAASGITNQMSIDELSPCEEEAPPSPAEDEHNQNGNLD
compound,measurement,setting,value
COc1cc2nncc(-c3cnc(NC(C)C)c(C)c3)c2cc1O[11CH3],IC50,[1],1.9 nM
CC([18F])C(=O)N1CCC(c2nccnc2Oc2ccc(C(=O)c3nc4ccccc4[nH]3)cc2)CC1 (stereo not drawn),IC50,[1],0.13 nM
[18F]CCn1cc(-c2ccncc2)c(-c2ccc(OCc3ccc4ccccc4n3)cc2)n1,Kd,[2],3.17 nM
same,Kd,[3],6.62 nM
same,IC50,[1],0.5 nM
CC(C)C(=O)c1c(C(C)C)nn2ccccc12 [IBUDILAST],IC50,[4],≤ 10000 nM
same,IC50,[5],≤ 10000 nM
[11CH3]Oc1cn(-c2ccc(C3CCOCC3)cc2F)nc(-c2ccnn2-c2ccccc2)c1=O,IC50,[1],0.77 nM
COc1cc(Br)cc2c1nc(C)c1c(C)nc(-c3ccc([18F])nc3)n12,remaining at 0.5 h,[6],64%
same,Drug uptake,[7],130%
same,SUV,[8],2.7
same,Drug uptake,[9],30%
same,remaining at 0.5 h,[10],88%
CCCc1nn(C)c2c(=O)[nH]c(-c3cc(S(=O)(=O)N4CCN([11CH3])CC4)ccc3OCC)nc12,SUVmax,[11],8
same,Drug uptake,[12],> 86%
Cc1cnc(COc2ccc(-c3nn(CC[18F])cc3-c3ccncc3)cc2)c(C)c1,IC50,[1],2 nM
CCCc1nc(C)c2c(=O)[nH]c(-c3cc(S(=O)(=O)N4CCN(CC[18F])CC4)ccc3OCC)nn12,SUVmax,[11],8.9
CC(=O)N1CCC(c2nccnc2Oc2ccc(C(=O)c3nc4ccccc4[nH]3)cc2)CC1,IC50,[1],0.18 nM
Cc1ccc([N+](=O)[O-])cc1S(=O)(=O)N(C)C,IC50,[13],62000 nM
same,IC50,[14],260 nM
same,IC50,[15],62000 nM
same,IC50,[16],62000 nM
same,IC50,[17],62000 nM
same,IC50,[18],62000 nM
COc1ccc2nnc3c(C)nc(-c4cc(OCCC[18F])ccc4F)n3c2n1,IC50,[19],11.4 nM
same,IC50,[20],7.3 nM
Cc1ccc2c(=O)n(-c3ccc4cnn(CC[18F])c4c3)c(CCN3C(=O)c4cccc(OC(C)C)c4C3=O)nc2c1,SUV,[21],0.7%
same,SUV,[22],1.5%
same,Kd,[23],0.029 nM
same,SUV,[24],0.7%
same,remaining at 2 h,[25],20%
CCc1cc(C#N)cc2c(NCc3ccc(OC)c(Cl)c3)c(COCCF)cnc12,IC50,[26],5.92 nM
same,Bmax,[27],0.1 nM
CCCCOc1ccc(F)c(-c2nc(C)c3nnc4ccc(OCC[18F])nc4n23)c1,IC50,[20],> 1000 nM
CC(C)Oc1cccc2c1C(=O)N(CCc1nc3ccccc3c(=O)n1-c1ccc(O[11CH3])cc1)C2=O,logD at 1 h,[28],3.19
Cc1ccc2c(=O)n(-c3ccc(OC[18F])cc3)c(CCN3C(=O)c4cccc(OC(C)C)c4C3=O)nc2c1,Kd,[23],0.097 nM
same,remaining at 2 h,[25],20%
COc1ccc(CNc2c(CO)cnc3c(N4CC(F)C4)cc(C#N)cc23)cc1Cl,IC50,[26],5.92 nM
same,IC50,[29],1.86 nM
same,Bmax,[27],0.1 nM
Cc1ccc(C)n2nc(CCc3nc(-c4ccccc4)cn3[11CH3])nc12,IC50,[30],0.39 nM
same,remaining at 0.5 h,[31],27%
CCCCN1C(=O)[C@H]2Cc3c([nH]c4ccccc34)[C@@H](c3ccc(O[11CH3])cc3)N2C1=O,SUV,[32],3.8
Cn1cc(-c2ccncc2)c(-c2ccc(OCc3ccc4ccccc4n3)cc2)n1 [MARDEPODECT],Activity,[33],8.61%
[11CH3]n1nnc(COc2ccc(Cl)c3c2C2(CCCCC2)NC(=O)N3)n1,remaining at […],[34],74%
same,IC50,Phosphodiesterase 7,1.7 nM
O=C1Nc2c(Cl)ccc(OCC[18F])c2C2(CCCCC2)N1,remaining at […],[34],84%
same,IC50,Phosphodiesterase 7,17 nM
[11CH3]n1cc(-c2ccncc2)c(-c2ccc(OCc3ccc4ccccc4n3)cc2)n1,remaining at 1.5 h,[35],30%
same,remaining at 1.167 h,[36],24%
COc1ccc2nnc3c(C)nc(-c4cc(OCCCC[18F])ccc4F)n3c2n1,IC50,[19],913 nM
same,IC50,[20],7.3 nM
CCCCN1C(=O)[C@H]2Cc3c([nH]c4ccccc34)[C@@H](c3ccc(OC)cc3)N2C1=O,SUV,[32],2.6
CC(C)Cn1c(=O)n(C)c(=O)c2c(Nc3ccccc3)n(Cc3ccc(C4CCCN4C)cc3)nc21 (stereo not drawn),IC50,Phosphodiesterase 1,13 nM
O=C1C[C@H](c2ccc(OCF)c(OC3CCCC3)c2)CN1,Kd,Phosphodiesterase 4,0.26 nM
CCC(CC)Nc1ncnc2c(OC)c(OC)ccc12,IC50,Phosphodiesterase 1,170 nM
[11CH3]N(c1cc(N2CC[C@@H](F)C2)nc2cc(-c3cnc4c(n3)CCCC4)nn12)C1CCOCC1,IC50,[1],0.06 nM
same,remaining at 1.5 h,[35],50%
